Test results: patent publication US12110276B2 (Genentech, Inc., priority 2021, dated 2024)

Assays:
TEAD2 = TEAD2 (Homo sapiens (Human), UniProt Q15562);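 also: TR-FRET competition assay with His-tagged TEAD protein and a biotinylated lipid pocket probe, compound pre-incubated 30 min or 4 h at room temperature, displacement lowers signal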
Experimental: His-tagged TEAD proteins are pre-incubated with TEAD project compounds for 30 minutes or 4 hours at room temperature. Biotinylated lipid pocket probes are then added to the TEAD/Compound mixture and incubated for 60 minutes at room temperature. The lipid pocket probe competes with the test compound for the TEAD lipid pocket until equilibrium is reached. After 60 minutes, Europium labelled anti-His (Perkin Elmer #AD0110) and XL665 labelled streptavidin (CIS Bio 610SAXAC) are added to the TEAD/test compound/lipid pocket mixture and incubated for 30 minutes or 4 hours. TR-FRET values are then measured using an EnVision multi-label plate reader (Perkin Elmer Cat #2104-0010A.) If the lipid pocket probe binds to TEAD as expected, a TR-FRET signal results from the proximity of anti-His Eu and XL665. If a TEAD lipid pocket binder such as binds and displaces the lipid pocket probe, the disruption of the TEAD:probe interaction results in a decrease in TR-FRET signal. The potency of compounds as TEAD lipid pocket binders is determined by IC50 value generated using a non-linear 4 parameter curve fit.

TEAD1 = TEAD1 (Homo sapiens (Human), UniProt P28347); assay: TR-FRET lipid pocket probe competition assay (Lipid HTRF), TEAD1; format: binding; conditions: 4 hours pre-incubation; read-out: Lipid HTRF TEAD1 IC50;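 also: His-tagged TEAD1 with biotinylated probe, detected via Europium anti-His and XL665 streptavidin, probe displacement lowers TR-FRET signal, IC50 from four-parameter nonlinear fit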
TEAD4 = TEAD4 (Homo sapiens (Human), UniProt Q15561); assay: TR-FRET lipid pocket probe competition assay (Lipid HTRF), TEAD4; format: binding; conditions: 4 hours pre-incubation; read-out: Lipid HTRF TEAD4 IC50;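 also: His-tagged TEAD4 with biotinylated lipid-pocket probe, read by Europium anti-His and XL665 streptavidin, where probe displacement lowers the TR-FRET signal, IC50 from a four-parameter fit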
Experimental: His-tagged TEAD proteins are pre-incubated with TEAD project compounds for 30 minutes or 4 hours at room temperature. Biotinylated lipid pocket probes are then added to the TEAD/Compound mixture and incubated for 60 minutes at room temperature. The lipid pocket probe competes with the test compound for the TEAD lipid pocket until equilibrium is reached. After 60 minutes, Europium labelled anti-His (Perkin Elmer #AD0110) and XL665 labelled streptavidin (CIS Bio 610SAXAC) are added to the TEAD/test compound/lipid pocket mixture and incubated for 30 minutes or 4 hours. […] If a TEAD lipid pocket binder such as binds and displaces the lipid pocket probe, the disruption of the TEAD:probe interaction results in a decrease in TR-FRET signal. The potency of compounds as TEAD lipid pocket binders is determined by IC50 value generated using a non-linear 4 parameter curve fit.

TEAD3 = TEAD3 (Homo sapiens (Human), UniProt Q99594); assay: TR-FRET lipid pocket probe competition assay (Lipid HTRF), TEAD3; format: binding; conditions: 4 hours pre-incubation; read-out: Lipid HTRF TEAD3 IC50
Sequence of TEAD3 (Q99594 whole entry, species assumed): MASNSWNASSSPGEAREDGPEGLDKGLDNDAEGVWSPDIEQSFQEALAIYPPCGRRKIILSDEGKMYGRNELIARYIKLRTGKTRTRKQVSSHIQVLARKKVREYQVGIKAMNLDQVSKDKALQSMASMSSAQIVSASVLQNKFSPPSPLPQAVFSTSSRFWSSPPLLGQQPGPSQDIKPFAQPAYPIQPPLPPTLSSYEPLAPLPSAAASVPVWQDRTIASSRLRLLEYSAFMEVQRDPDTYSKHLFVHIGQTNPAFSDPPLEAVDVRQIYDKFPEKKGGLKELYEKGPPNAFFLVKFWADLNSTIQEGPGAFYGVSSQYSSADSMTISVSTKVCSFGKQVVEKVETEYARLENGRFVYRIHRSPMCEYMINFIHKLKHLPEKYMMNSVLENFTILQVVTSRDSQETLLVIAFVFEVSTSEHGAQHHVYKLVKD

Sequence of TEAD2 (Q15562 whole entry, species assumed): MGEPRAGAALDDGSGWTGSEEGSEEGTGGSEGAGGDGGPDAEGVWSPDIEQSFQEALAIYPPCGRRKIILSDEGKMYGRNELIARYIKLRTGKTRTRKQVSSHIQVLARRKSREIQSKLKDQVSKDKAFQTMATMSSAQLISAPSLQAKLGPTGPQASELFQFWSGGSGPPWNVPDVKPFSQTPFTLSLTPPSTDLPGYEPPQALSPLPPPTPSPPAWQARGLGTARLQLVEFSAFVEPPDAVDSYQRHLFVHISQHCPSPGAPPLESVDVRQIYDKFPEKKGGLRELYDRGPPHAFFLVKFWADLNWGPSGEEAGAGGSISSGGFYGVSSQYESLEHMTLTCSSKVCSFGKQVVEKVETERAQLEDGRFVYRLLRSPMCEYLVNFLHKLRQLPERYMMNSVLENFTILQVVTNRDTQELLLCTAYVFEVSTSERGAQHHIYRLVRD
Sequence of TEAD4 (Q15561 whole entry, species assumed): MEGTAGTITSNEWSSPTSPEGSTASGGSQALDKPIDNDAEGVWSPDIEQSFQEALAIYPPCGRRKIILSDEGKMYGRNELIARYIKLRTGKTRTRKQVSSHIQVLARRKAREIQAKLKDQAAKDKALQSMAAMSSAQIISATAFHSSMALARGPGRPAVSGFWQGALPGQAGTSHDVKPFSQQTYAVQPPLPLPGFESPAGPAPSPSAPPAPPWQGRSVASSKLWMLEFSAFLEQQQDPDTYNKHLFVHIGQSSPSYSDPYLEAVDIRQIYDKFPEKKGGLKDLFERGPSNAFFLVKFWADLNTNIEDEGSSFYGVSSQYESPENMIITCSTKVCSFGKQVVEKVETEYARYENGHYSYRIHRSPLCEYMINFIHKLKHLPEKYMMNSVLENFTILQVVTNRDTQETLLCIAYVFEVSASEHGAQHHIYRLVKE
Sequence of TEAD1 (P28347 whole entry, species assumed): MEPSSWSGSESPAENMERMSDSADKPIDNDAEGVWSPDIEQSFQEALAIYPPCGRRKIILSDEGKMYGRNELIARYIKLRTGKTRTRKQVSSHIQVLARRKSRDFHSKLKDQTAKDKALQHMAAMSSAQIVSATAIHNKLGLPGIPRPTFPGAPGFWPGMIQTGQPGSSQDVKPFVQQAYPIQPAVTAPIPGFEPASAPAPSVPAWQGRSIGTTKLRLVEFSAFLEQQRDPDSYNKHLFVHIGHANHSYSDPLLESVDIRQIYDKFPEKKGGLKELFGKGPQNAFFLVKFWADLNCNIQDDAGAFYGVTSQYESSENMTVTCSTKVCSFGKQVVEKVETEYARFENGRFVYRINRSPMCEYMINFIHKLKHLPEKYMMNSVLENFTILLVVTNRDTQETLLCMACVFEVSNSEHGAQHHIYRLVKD

Row | IC50 (TEAD2) | IC50 (TEAD1) | IC50 (TEAD4) | IC50 (TEAD3) | Structure (SMILES)
1 | 20 nM | 110 nM | 43 nM | 200 nM | CC#CC(=O)N1CC(c2nn(-c3ccc(OC(F)(F)F)cc3)c3nccc([C@H](O)CO)c23)C1 [Compound 129, (S)-1-(3-(4-(1,2-Dihydroxyethyl)-1-(4-(trifluoromethoxy)phenyl)-1H-pyrazolo[3,4-b]pyridin-3-yl)azetidin-1-yl)but-2-yn-1-one]
2 | 1000 nM | 380 nM | 540 nM | 5400 nM | C=C(F)C(=O)N1CC(c2nn(-c3ccc(OC(F)(F)F)cc3)c3nccc(-c4c[nH]cn4)c23)C1 [Compound 130, 1-(3-(4-(1H-Imidazol-4-yl)-1-(4-(trifluoromethoxy)phenyl)-1H-pyrazolo[3,4-b]pyridin-3-yl)azetidin-1-yl)-2-fluoroprop-2-en-1-one]
3 | 43 nM | 14 nM | 22 nM | 360 nM | C=CC(=O)NCc1nn(-c2ccc(OC(F)(F)F)cc2)c2nccc(-c3cn[nH]c3)c12 [Compound 134, N-((4-(1H-Pyrazol-4-yl)-1-(4-(trifluoromethoxy)phenyl)-1H-pyrazolo[3,4-b]pyridin-3-yl)methyl)acrylamide]
4 | 68 nM | 390 nM | 99 nM | 34000 nM | C=CC(=O)NCc1nn(-c2ccc(OC(F)(F)F)cc2)c2nccc(C(C)(C)O)c12 [Compound 135, N-((4-(2-Hydroxypropan-2-yl)-1-(4-(trifluoromethoxy)phenyl)-1H-pyrazolo[3,4-b]pyridin-3-yl)methyl)acrylamide]
5 | 360 nM | 72 nM | 26 nM | 5200 nM | O=C(/C=C/CF)N1CC(c2nn(-c3ccc(OC(F)(F)F)cc3)c3ccnc(N4CC(O)C4)c23)C1 [Compound 137, (E)-4-fluoro-1-(3-(4-(3-hydroxyazetidin-1-yl)-1-(4-(trifluoromethoxy)phenyl)-1H-pyrazolo[4,3-c]pyridin-3-yl)azetidin-1-yl)but-2-en-1-one]
6 | 26 nM | 31 nM | 12 nM | 600 nM | C=CC(=O)N(C)Cc1nn(-c2ccc(OC(F)(F)F)cc2)c2nccc([C@H](O)CO)c12 [Compound 139, (S)-N-((4-(1,2-Dihydroxyethyl)-1-(4-(trifluoromethoxy)phenyl)-1H-pyrazolo[3,4-b]pyridin-3-yl)methyl)-N-methylacrylamide]
7 | 720 nM | 230 nM | 440 nM | 4400 nM | C=CC(=O)NCc1nn(-c2ccc(OC(F)F)cc2)c2nccc(CO)c12 [Compound 140, N-((1-(4-(difluoromethoxy)phenyl)-4-(hydroxymethyl)-1H-pyrazolo[3,4-b]pyridin-3-yl)methyl)acrylamide]
8 | 54 nM | 27 nM | 6.9 nM | 2000 nM | C=C(F)C(=O)N1CC(c2nn(-c3ccc(OC(F)(F)F)cc3)c3nccc(N4CC([C@H](O)CO)C4)c23)C1 [Compound 141, (S)-1-(3-(4-(3-(1,2-dihydroxyethyl)azetidin-1-yl)-1-(4-(trifluoromethoxy)phenyl)-1H-pyrazolo[3,4-b]pyridin-3-yl)azetidin-1-yl)-2-fluoroprop-2-en-1-one]
9 | 330 nM | 150 nM | 9 nM | 50000 nM | C=C(F)C(=O)N1CC(c2nn(-c3ccc(OC(F)(F)F)cc3)c3nccc(N4CC(CO)(CO)C4)c23)C1 [Compound 142, 1-(3-(4-(3,3-Bis(hydroxymethyl)azetidin-1-yl)-1-(4-(trifluoromethoxy)phenyl)-1H-pyrazolo[3,4-b]pyridin-3-yl)azetidin-1-yl)-2-fluoroprop-2-en-1-one]
10 | 65 nM | 16 nM | 65 nM | 50000 nM | C=CC(=O)NCc1nn(-c2ccc(OC(F)(F)F)cc2)c2nccc(N[C@H]3C[C@@H](O)C3)c12 [Compound 143, N-((4-((3-hydroxycyclobutyl)amino)-1-(4-(trifluoromethoxy)phenyl)-1H-pyrazolo[3,4-b]pyridin-3-yl)methyl)acrylamide]
11 | 90 nM | 17 nM | 14 nM | 280 nM | O=C(NCc1nn(-c2ccc(OC(F)(F)F)cc2)c2nccc(CO)c12)C1=CCC1 [Compound 148, N-((4-(Hydroxymethyl)-1-(4-(trifluoromethoxy)phenyl)-1H-pyrazolo[3,4-b]pyridin-3-yl)methyl)cyclobut-1-enecarboxamide]
12 | 1200 nM | 560 nM | 460 nM | 50000 nM | O=C(C1=CCCC1)N1CC(c2nn(-c3ccc(OC(F)(F)F)cc3)c3nccc(CO)c23)C1 [Compound 150, Cyclopent-1-en-1-yl(3-(4-(hydroxymethyl)-1-(4-(trifluoromethoxy)phenyl)-1H-pyrazolo[3,4-b]pyridin-3-yl)azetidin-1-yl)methanone]
13 | 630 nM | 680 nM | 570 nM | 50000 nM | C/C=C(\C)C(=O)N1CC(c2nn(-c3ccc(OC(F)(F)F)cc3)c3nccc(CO)c23)C1 [Compound 151, (E)-1-(3-(4-(Hydroxymethyl)-1-(4-(trifluoromethoxy)phenyl)-1H-pyrazolo[3,4-b]pyridin-3-yl)azetidin-1-yl)-2-methylbut-2-en-1-one]
14 | 810 nM | 220 nM | 140 nM | 1200 nM | O=C(C1=CCOC1)N1CC(c2nn(-c3ccc(OC(F)(F)F)cc3)c3nccc(CO)c23)C1 [Compound 152, (2,5-Dihydrofuran-3-yl)(3-(4-(hydroxymethyl)-1-(4-(trifluoromethoxy)phenyl)-1H-pyrazolo[3,4-b]pyridin-3-yl)azetidin-1-yl)methanone]
15 | 350 nM | 320 nM | 160 nM | 6900 nM | C=C(F)C(=O)NCc1nn(-c2ccc(OC(F)(F)F)cc2)c2nccc([C@H](O)CO)c12 [Compound 155, (S)-N-((4-(1,2-Dihydroxyethyl)-1-(4-(trifluoromethoxy)phenyl)-1H-pyrazolo[3,4-b]pyridin-3-yl)methyl)-2-fluoroacrylamide]
16 | 25 nM | 33 nM | 7.8 nM | 740 nM | O=C(NCc1nn(-c2ccc(OC(F)(F)F)cc2)c2nccc([C@H](O)CO)c12)C1=CCC1 [Compound 156, (S)-N-((4-(1,2-Dihydroxyethyl)-1-(4-(trifluoromethoxy)phenyl)-1H-pyrazolo[3,4-b]pyridin-3-yl)methyl)cyclobut-1-enecarboxamide]
17 | 690 nM | 51 nM | 64 nM | 4300 nM | C=C(F)C(=O)N1CC(c2nn(-c3ccc(OC(F)(F)F)cc3)c3nccc(-c4cnn(C)c4)c23)C1 [Compound 158, 2-Fluoro-1-(3-(4-(1-methyl-1H-pyrazol-4-yl)-1-(4-(trifluoromethoxy)phenyl)-1H-pyrazolo[3,4-b]pyridin-3-yl)azetidin-1-yl)prop-2-en-1-one]
18 | 5.7 nM | 45 nM | 8.5 nM | 240 nM | C=C(C)S(=O)(=O)N1CC(c2nn(-c3ccc(OC(F)(F)F)cc3)c3nccc([C@H](O)CO)c23)C1 [Compound 159, (S)-1-(3-(1-(Prop-1-en-2-ylsulfonyl)azetidin-3-yl)-1-(4-(trifluoromethoxy)phenyl)-1H-pyrazolo[3,4-b]pyridin-4-yl)ethane-1,2-diol]
19 | 15 nM | 76 nM | 43 nM | 1200 nM | C=C(C)S(=O)(=O)N1CC(c2nn(-c3ccc(OC(F)(F)F)cc3)c3nccc([C@@H](O)CO)c23)C1 [Compound 160, (R)-1-(3-(1-(prop-1-en-2-ylsulfonyl)azetidin-3-yl)-1-(4-(trifluoromethoxy)phenyl)-1H-pyrazolo[3,4-b]pyridin-4-yl)ethane-1,2-diol]
20 | 129 nM | 47.9 nM | 32 nM | 2040 nM | C=CC(=O)NCc1nn(-c2ccc(OC(F)(F)F)cc2)c2nccc(-c3cnn(C)c3)c12 [Compound 164, N-((4-(1-methyl-1H-pyrazol-4-yl)-1-(4-(trifluoromethoxy)phenyl)-1H-pyrazolo[3,4-b]pyridin-3-yl)methyl)acrylamide]
21 | 40 nM | 120 nM | 100 nM | 50000 nM | C=CC(=O)NCc1nn(-c2ccc(OC(F)(F)F)cc2)c2nccc(-c3cnn(CC(N)=O)c3)c12 [Compound 165, N-((4-(1-(2-amino-2-oxoethyl)-1H-pyrazol-4-yl)-1-(4-(trifluoromethoxy)phenyl)-1H-pyrazolo[3,4-b]pyridin-3-yl)methyl)acrylamide]
22 | 210 nM | 57 nM | 35 nM | 1700 nM | C=CC(=O)NCc1nn(-c2ccc(OC(F)(F)F)cc2)c2nccc(-c3cnn(CCOC)c3)c12 [Compound 167, N-[[4-[1-(2-methoxyethyl)pyrazol-4-yl]-1-[4-(trifluoromethoxy)phenyl]pyrazolo[3,4-b]pyridin-3-yl]methyl]prop-2-enamide]
23 | 1100 nM | 140 nM | 49 nM | 50000 nM | C=CC(=O)NCc1nn(-c2ccc(OC(F)(F)F)cc2)c2nccc(-c3cnn(CCS(C)(=O)=O)c3)c12 [Compound 168, N-((4-(1-(2-(methylsulfonyl)ethyl)-1H-pyrazol-4-yl)-1-(4-(trifluoromethoxy)phenyl)-1H-pyrazolo[3,4-b]pyridin-3-yl)methyl)acrylamide]

Row | Structure (SMILES) | IC50 (TEAD2) | IC50 (TEAD1) | IC50 (TEAD4) | IC50 (TEAD3)
24 | C=CC(=O)NCc1nn(-c2ccc(OC(F)(F)F)cc2)c2nccc([C@H]3COC(=O)O3)c12 [Compound 144, (S)-N-((4-(2-Oxo-1,3-dioxolan-4-yl)-1-(4-(trifluoromethoxy)phenyl)-1H-pyrazolo[3,4-b]pyridin-3-yl)methyl)acrylamide] | 150 nM | 560 nM | 55 nM | 50000 nM
